“Also recorded” adds a separate entry of the source.
Legend:
[1] = system: dried bean beetle (Acanthoscelides obtectus); assay: protection against dried bean beetle, procedure of Example 13(a) (Table 7); type: in vivo; conditions: compared with dichlorphon
Description: (§1) The emulsifiable concentrate described in Example 8 was diluted with water to a final active agent content of 3% by weight, and an amount corresponding to 2.5 mg of racemic active agent/cm^2 of plane area of the resulting spray liquid was filled into a cylindrical flask. 20 flies, anaesthetized with carbon dioxide, were placed in the flask, the flask was covered with a Petri dish, and the effect of the active agent was observed. In the control test the same dosage of dichlorphon (O,O-dimethyl-2,2-dichlorovinyl phosphate) was applied as active agent.
Protection against dried bean beetle (Acanthoscelides obtectus)

[2] = system: white rats; assay: acute oral toxicity (LD50) on white rats; conditions: rat, in vivo
Text: (§2) Therefore, the new compound of the formula (I) can be utilized to advantage as insecticidal agent for controlling granarial insect pests and insects attacking ornamental plants, indoor plants and vegetables.

[3] = system: cholinesterase; assay: cholinesterase blocking effect; type: biochemical
[4] = system: Carrot; assay: greenhouse pre-emergent treatment, green weight, carrot (Table 2); type: in vivo; conditions: 4-week-old plants
Description: (§3) (a2) Seeds of bean, carrot, flax, green pepper, tomato, spinach, barley and sorghum were sown into cultivation pots (20×20 cm) filled with sand. The cultivation pots were placed in a greenhouse, and treated prior to plant emergence with 0.1 or 0.2 kg of racemic active agent/hectare. The green weights of the 4-week-old plants were measured, and the data were compared to those observed with the untreated controls.

[5] = system: Green pepper; assay: greenhouse pre-emergent treatment, green weight, green pepper (Table 2); type: in vivo; conditions: 4-week-old plants
Description: as §3

[6] = system: Tomato; assay: greenhouse pre-emergent treatment, green weight, tomato (Table 2); type: in vivo; conditions: 4-week-old plants
Description: as §3

[7] = system: dried bean beetle (Acanthoscelides obtectus); assay: protection against dried bean beetle on treated bean seeds (Table 8); type: in vivo
Description: (b) 100 g of bean seeds each were treated with a spray liquid containing 1.0% by weight of racemic active agent (prepared by diluting an emulsifiable concentrate containing 50% by weight of active agent) in an amount corresponding to 250, 500 and 1000 ppm of active agent, respectively. The control seeds were not treated. The seeds were put into small cylindrical flasks. 20 insects each were placed in the flasks, and the flasks were covered with a cloth. After 14 days the survivors were counted.

[8] = acute oral toxicity (LD50) on white rats; conditions: rat, in vivo; white rats, oral administration
Text: as §2

[9] = system: corn; assay: greenhouse test, plant growth promoting effect on corn from dressed seeds (Table 1); type: in vivo
Description: (§4) 6 parts by weight of a 10% acetone solution of (±)-2-(propargyloxyimino)-1,7,7-trimethyl-bicyclo[2,2,1]heptane are added under stirring to a solution containing 30 parts by weight of acetone, 2.5 parts by weight of hydroxypropyl cellulose, 5 parts by weight of polyethylene glycol (molecular weight: 6000), 20 parts by weight of water and an arbitrary amount of a dyestuff having no germination-inhibiting effect.
(§5) (a1) Three cultivation pots were filled with sand, and 30 corn seeds each were sown. 10 of the seeds were not dressed (untreated controls), 10 of the seeds were dressed with a dressing agent described in Example 10 but containing no active agent (placebo), whereas the remaining 10 seeds were dressed with a dressing agent prepared according to Example 10 containing racemic active agent. The cultivation pots were placed in a greenhouse, and the temperature, light and atmospheric humidity of the greenhouse were maintained at optimum. The percentage of germinating seeds was determined, and on the 14th and 28th days after sowing the height and green weight of the emerged plants were measured. The results of the test are summarized in Table 1, in which the percentage of germination is related to the number of seeds sown, whereas the heights and green weights of the plants are given in percentages related to the untreated controls.

[10] = system: houseflies (Musca domestica); assay: insecticidal activity, protection against houseflies (Table 5); conditions: in vivo
Description: as §1

[11] = system: corn; assay: open-air test on small parcels with dressed corn seeds (Table 3); type: in vivo
Description: as §4, §5
The procedure described in point (a) was repeated with the difference that the seeds were sown in a 10×10 m parcel, the plants were kept under observation for the whole growth season, and the crop yield was also determined. The parcel was hoed in order to remove weeds.

[12] = system: Spinach; assay: greenhouse pre-emergent treatment, green weight, spinach (Table 2); type: in vivo; conditions: 0.1 kg/ha, 4-week-old plants
Description: as §3

[13] = system: Bean; assay: greenhouse pre-emergent treatment, green weight, bean (Table 2); type: in vivo; conditions: 4-week-old plants
Description: as §3

[14] = system: corn; assay: open-air test on small parcels, pre- or post-emergent spraying of corn (Table 4); type: in vivo; conditions: for Ear yield / Green weight / Height: untreated = 100
Description: 10 parts by weight of (±)-2-(propargyloxyimino)-1,7,7-trimethyl-bicyclo[2,2,1]heptane are dissolved in 9 parts by weight of xylene, and 1 part by weight of a mixture of an anionic and a non-ionic surfactant (e.g. a 2:3 mixture of Atlox 3386 and Atlox 4851) is added to the solution. The mixture is homogenized. An emulsifiable concentrate containing 50% by weight of active agent (50 EC) is obtained, which can be diluted with water to form a spray liquid.
Corn seeds were sown in small (10×10 m) parcels, and the parcels were treated prior to or after plant emergence with an aqueous spray liquid prepared from the emulsifiable concentrate described in Example 8. The concentrate was diluted with rain water to a final active agent content of 0.02 to 0.1%, depending on the dosage applied, and 500 liters/hectare of the spray liquid were applied. The dosages examined in the pre-emergent treatments varied between […] of racemic active agent/hectare, whereas in the post-emergent treatment a dosage of 1 kg of racemic active agent/hectare was applied. The parcels were hoed in order to remove weeds.

[15] = system: Flax; assay: greenhouse pre-emergent treatment, green weight, flax (Table 2); type: in vivo; conditions: 4-week-old plants
Description: as §3

[16] = system: housefly (Musca domestica) larvae; assay: insecticidal activity, protection against housefly larvae (Table 6); type: in vivo; conditions: for Development: in relation to the control
Description: 1 kg of wheat barn was admixed with 1 liter of milk, 10 g of fodder yeast and 6 g of Nipagin (ethyl p-hydroxybenzoate) to obtain a culture medium for the cultivation of housefly larvae. 200 g each of the above culture medium were put into small cylindrical flasks, and racemic active agent was added so that the active agent content of the culture medium was 250, 500 and 1000 ppm, respectively. The racemic active agent was introduced in the form of an emulsifiable concentrate containing 50% by weight of the compound concerned, and the culture medium was homogenized with the concentrate. No active agent was introduced into the control flask. 50 one-day-old housefly larvae each were placed in the cylindrical flasks, the flasks were covered with a cloth ensuring good ventilation, and the percentage of images developing from the pupae was determined in relation to the control.

[17] = system: Barley; assay: greenhouse pre-emergent treatment, green weight, barley (Table 2); type: in vivo; conditions: 4-week-old plants
Description: as §3

[18] = system: Sorghum; assay: greenhouse pre-emergent treatment, green weight, sorghum (Table 2); type: in vivo; conditions: 4-week-old plants
Description: as §3

[19] = 14th day after sowing, related to untreated controls
[20] = 28th day after sowing, related to untreated controls
[21] = dressed seeds, open air, untreated control = 100
[22] = post-emergent, 1.0 kg of active agent/hectare
[23] = pre-emergent, 0.1 kg of active agent/hectare
[24] = pre-emergent, 1.0 kg of active agent/hectare
[25] = pre-emergent, 3.0 kg of active agent/hectare
[26] = pre-emergent, 5.0 kg of active agent/hectare

## C#CCON=C1CC2CCC1(C)C2(C)C (racemic) [new compound of the formula (I), 2-(proparglyoxyimino)-1,7,7-trimethyl-bicyclo[2,2,1]heptane]
[1]
  speed of effect on more resistant test insects (in words): slower on more resistant test insects
[2]
  toxicity (in words): low toxicity; also recorded: superior to the known active agent with respect to its lower toxicity
[3]
  cholinesterase blocking effect: absence of cholinesterase blocking effect

## C#CCON=C1CC2CCC1(C)C2(C)C (racemic) [racemic active agent, (±)-2-(propargyloxyimino)-1,7,7-trimethyl-bicyclo[2,2,1]heptane]
[4]; 0.1 kg/ha
  Green weight in relation to the controls: 105%
[4]; 0.2 kg/ha
  Green weight in relation to the controls: 140%
[5]; 0.1 kg/ha
  Green weight in relation to the controls: 95%
[5]; 0.2 kg/ha
  Green weight in relation to the controls: 140%
[6]; 0.1 kg/ha
  Green weight in relation to the controls: 120%
[6]; 0.2 kg/ha
  Green weight in relation to the controls: 112%
[7]; Acanthoscelides obtectus, 336 h, 250 ppm, after 14 days, percentage of the control, read-out: Survivors
  survival at 250 ppm: 5%
[7]; Acanthoscelides obtectus, 336 h, 500 ppm, after 14 days, percentage of the control, read-out: Survivors
  survival at 500 ppm: 0%
[7]; Acanthoscelides obtectus, 336 h, 1000 ppm, after 14 days, percentage of the control, read-out: Survivors
  survival at 1000 ppm: 0%
[7]; even in a concentration of 250 ppm
  killing of granarial insect pests such as dried bean beetle (in words): can be applied successfully to kill granarial insect pests
[8]
  LD50: 1400 mg/kg
[9]; [19]
  14th day Green weight: 152%
  14th day Height: 143%
[9]; [20]
  28th day Green weight: 154%
  28th day Height: 148%
[9]; dressed corn seeds, greenhouse, related to number of seeds sown
  Germination: 95%
[10]
  effect on houseflies compared with dichlorphon (in words): approximately the same effect as dichlorphon
[11]; Table 3
  corn higher by (in comparison with the two controls): 27%
  ear yield greater by (in comparison with the two controls): 20%
  green weight higher by (in comparison with the two controls): 25%
[11]; [21]
  Ear yield: 120%
  Green weight: 125%
  Height: 127%
[12]
  Green weight in relation to the controls: 135%
[13]; 0.1 kg/ha
  Green weight in relation to the controls: 110%
[13]; 0.2 kg/ha
  Green weight in relation to the controls: 135%
[14]; [22]
  Ear yield: 109%
  Green weight: 120%
  Height: 116%
[14]; post-emergent, 1 kg/hectare
  post-emergent results compared with pre-emergent, same dosage (in words): slightly inferior to the former ones
[14]; [23]
  Ear yield: 102%
  Green weight: 108%
  Height: 105%
[14]; pre-emergent, 0.1 kg/hectare
  effectiveness in pre-emergent treatment (in words): effective even in a dosage of 0.1 kg/hectare
[14]; [24]
  Ear yield: 118%
  Green weight: 127%
  Height: 121%
[14]; [25]
  Ear yield: 116%
  Green weight: 135%
  Height: 127%
[14]; [26]
  Ear yield: 107%
  Green weight: 115%
  Height: 115%
[15]; 0.1 kg/ha
  Green weight in relation to the controls: 118%
[15]; 0.2 kg/ha
  Green weight in relation to the controls: 105%
[16]; 250 ppm
  Activity: 70.4%
  Development: 29.6%
[16]; 500 ppm
  Activity: 100.0%
  Development: 0%
[16]; 1000 ppm
  Activity: 100.0%
  Development: 0%
[17]; 0.1 kg/ha
  Green weight in relation to the controls: 120%
[17]; 0.2 kg/ha
  Green weight in relation to the controls: 105%
[18]; 0.1 kg/ha
  Green weight in relation to the controls: 130%
[18]; 0.2 kg/ha
  Green weight in relation to the controls: 130%

Reference: patent US4310348A, “Plant growth regulating compositions” (priority 1978, dated 1982)
